# Measured values from PMC7845594, “Novel Immune Modulators Enhance Caenorhabditis elegans Resistance to Multiple Pathogens” (mSphere, 2021).
# Experiments:
# [1] = system: C. elegans exposed to P. aeruginosa strain PA14; assay: P. aeruginosa slow-killing assay (agar); format: in vivo, Caenorhabditis elegans; settings: wild-type worms, 50 µM, Fig 8 (DMSO 58.9)
# Description: The finding that each of the compounds activated PMK-1/p38 MAPK targets was of interest, as this pathway is associated with enhanced immunity against multiple bacterial pathogens in agar-based C. elegans assays. Therefore, we tested whether these compounds could promote survival in an agar-based, high-colonization pathogenesis model known as slow killing. Loss of PMK-1 activity substantially compromises survival in the slow-killing assay ([16], [47]). Wild-type, young adult worms were exposed to P. aeruginosa strain PA14 on agar plates impregnated with each of the five compounds. […] To see whether this depended upon the PMK-1 pathway, LK32, LK38, and LK56 were retested in worms where RNAi was used to knock down pmk-1/MAPK or atf-7/ATF7 (a key transcription factor whose activity is modulated by PMK-1 [63, 64]) (Fig. 9; see Table S2 in the supplemental material for TD50 and overall statistical significance).
# FIG 8 Four LK molecules extend C. elegans life span in the slow-killing assay. […] The data shown are from a representative replicate. Each of the three biological replicates was comprised of three plates per condition, with each plate containing ∼60 worms. Statistical significance was calculated using a log-rank test. Worms that left the surface of the plate were excluded from analysis (see Table S2 in the supplemental material for TD50 and exact P values).
# FIG 9 Rescue in slow killing by a subset of LK compounds depends upon the PMK-1/p38 MAPK pathway. Wild-type L4 worms were reared on RNAi targeting pmk-1/p38 MAPK, atf-7/ATF-7, or empty vector and placed onto slow-killing plates containing DMSO or LK32 (A and B), LK38 (C and D), or LK56 (E and F) at 50 µM. Starting at 24 h, worms were scored every 12 h for survival until all worms perished. Each of the three biological replicates was comprised of three plates, each plate contained approximately 50 to 70 worms. Statistical significance was calculated using log-rank test (see Table S2 in the supplemental material for TD50 and exact P values). For vector RNAi, DMSO versus compound, P < 0.001 for LK38, LK56, and LK32.
# Supplementary file : FIG S5 NSY-1 and SEK-1, upstream members of the PMK-1/p38 MAPK pathway, are required for LK38-mediated rescue. Young adult wild-type, nsy-1/MAP3K15(ag3), or sek-1/MAP2K6(km-4) mutants were exposed to P. aeruginosa in the slow-killing assay in the presence of DMSO or LK38. Data for each condition at each time point represent the average value for three plates from one representative replicate (of three replicates total). Each plate contained ∼60 worms. P values were calculated using a log-rank test (see Table S2 in the supplemental material for the TD50 and exact P values). For wild-type DMSO versus LK38 P < 0.001. No statistically significant difference was measured between LK38 and DMSO for either mutant. Download FIG S5, PDF file, 0.1 MB.
# Slow-killing (SK) plates were made as previously reported ([92]). Compounds were added to molten SK agar before pouring plates. After solidifying, 40 µl of PA14 overnight culture was spread on plates before incubating plates at 37°C for 24 h, followed by 25°C for 24 h. 5-fluoro-2′-deoxyuridine (FUDR) (0.1 mg/ml) was dropped on plates 30 min prior to picking worms, to ensure nematode sterility. Fifty to seventy L4-stage, wild-type worms were picked onto plates and scored every 12 h after the first 24 h, until all worms were dead. Three biological replicates were performed.
# [2] = system: reactive oxygen species (ROS); assay: DHE staining (ROS level); format: in vivo, Caenorhabditis elegans; settings: 50 or 100 µM, 10 h, no pathogen
# Description: Previous work from our lab has established that the ESRE network plays an important role in the resistance of C. elegans to pyoverdine, the main virulence determinant in liquid killing, and recent evidence has shown that ESRE activation depends on increased reactive oxygen species (ROS) ([23], [38], [39]). To evaluate ESRE activation, worms carrying an hsp-16.1p::GFP reporter (which contains two ESRE motifs and was previously used as an indicator of ESRE activation [[39][–][41]]), were exposed to 50 or 100 μM LK35, LK38, LK56, juglone (positive control), or DMSO. […] ROS level was assessed based on the fluorescence of dihydroethidium (DHE; a ROS-specific dye) using a COPAS FlowSort for flow vermimetry.
# Young adult wild-type (A), hsp-4p::GFP (B), hsp-16.1p::GFP (C), or rpt-3::GFP (D) worms were incubated with LK molecules at 50 or 100 µM, DMSO control, or positive controls. For panel A, the worms were treated with compound for 10 h, and then the worms were stained with 4 µM DHE for 1 h before washing and fluorescence measurement. For panels B to D, the worms were treated with compound for 15 h prior to fluorescence measurement. Mean values from at least three biological replicates are shown. *, P < 0.05; **, P < 0.01; ***, P < 0.001 (compared to the solvent control). P values were calculated using Student’s t test. Error bars represent the standard error of the mean. […]
# [3] = system: C. elegans host defense pathway genes; assay: nanoString expression of 115 immune- and stress-responsive genes; settings: 100 μM LK molecules, 16 h
# Protocol: The ratio of MIC to EC was determined for each of the 69 compounds.
# Analysis of the expression of 115 immune- and stress-responsive genes using nanoString technology. Download Table S1, XLSX file, 0.02 MB.
# For nanoString-based (nanoString Technologies, Seattle, WA) experiments, 2,000 wild-type, young adult worms were exposed to 100 μM LK molecules or DMSO control in S Basal medium in 6-well plates for 16 h. RNA purification and gene expression analysis were performed according to nanoString guidelines. Two biological replicates were tested for each condition.
smiles,measurement,setting,value
"Cc1ccc(Nc2nc(N)c3ccccc3n2)cc1Cl [RPW-24, reference compound]","TD50, slow killing",[1],63.7 h
C=C(C)[C@H]1Cc2c(ccc3c2O[C@@H]2COc4cc(OC)c(OC)cc4[C@@H]2C3=O)O1 [rotenone],ROS level (DHE staining),[2],significant increase in staining
"Cc1cc(C2CCCCC2)n(O)c(=O)c1 [Ciclopirox, reference compound]","B0024.4 expression, induction",[3],1.09 fold
same,"C02B4.2 nhr-17 expression, induction",[3],5.80 fold
same,"C06B3.7 expression, induction",[3],3.19 fold
same,"C07G3.2 irg-1 expression, induction",[3],1.06 fold
same,"C12C8.1 hsp-70 expression, induction",[3],3.28 fold
same,"C15F1.7 sod-1 expression, induction",[3],2.15 fold
same,"C29F7.2 expression, induction",[3],10.38 fold
same,"C31A11.5 oac-6 expression, induction",[3],5.76 fold
same,"C32D5.12 expression, induction",[3],1.22 fold
same,"C32H11.1 expression, induction",[3],20.23 fold
same,"C32H11.3 expression, induction",[3],2.02 fold
same,"C34G6.4 pgp-2 expression, induction",[3],3.63 fold
same,"C37C3.10 expression, induction",[3],12.27 fold
same,"C37H5.8 hsp-6 expression, induction",[3],4.01 fold
same,"C49G7.5 irg-2 expression, induction",[3],3.65 fold
same,"F08F8.5 numr-1 expression, induction",[3],8.74 fold
same,"F08H9.4 expression, induction",[3],4.96 fold
same,"F14F9.3 expression, induction",[3],1.98 fold
same,"F22B5.4 expression, induction",[3],2.49 fold
same,"F22H10.2 expression, induction",[3],2.82 fold
same,"F26A3.4 expression, induction",[3],2.35 fold
same,"F35E8.11 cdr-1 expression, induction",[3],56.32 fold
same,"F35G2.4 phy-2 expression, induction",[3],1.70 fold
same,"F37B12.2 gcs-1 expression, induction",[3],1.30 fold
same,"F43E2.8 hsp-4 expression, induction",[3],10.74 fold
same,"F44E5.5 expression, induction",[3],2.67 fold
same,"F49F1.6 expression, induction",[3],2.55 fold
same,"F49F1.7 expression, induction",[3],15.81 fold
same,"F49H6.13 expression, induction",[3],2.90 fold
same,"F54B8.4 expression, induction",[3],6.33 fold
same,"F55G11.2 expression, induction",[3],1.86 fold
same,"F59A7.1 clec-206 expression, induction",[3],11.44 fold
same,"F59B10.4 expression, induction",[3],1.20 fold
same,"H12D21.1 nspa-1 expression, induction",[3],3.83 fold
same,"H23N18.1 ugt-13 expression, induction",[3],5.56 fold
same,"H23N18.3 ugt-8 expression, induction",[3],108.33 fold
same,"K05B2.4 expression, induction",[3],8.10 fold
same,"K08F4.7 gst-4 expression, induction",[3],2.79 fold
same,"K09A9.1 nipi-3 expression, induction",[3],2.12 fold
same,"K10D11.2 expression, induction",[3],2.25 fold
same,"K10G4.3 expression, induction",[3],2.60 fold
same,"R03D7.6 gst-5 expression, induction",[3],11.91 fold
same,"R08H2.1 dhs-23 expression, induction",[3],120.99 fold
same,"R10E8.3 expression, induction",[3],3.34 fold
same,"T19D12.3 expression, induction",[3],2.80 fold
same,"T19H12.1 ugt-9 expression, induction",[3],6.34 fold
same,"T21E8.1 pgp-6 expression, induction",[3],0.94 fold
same,"T22B7.3 expression, induction",[3],2.18 fold
same,"T24C4.4 expression, induction",[3],1.62 fold
same,"T24E12.5 expression, induction",[3],3.07 fold
same,"T27E4.3 hsp-16.48 expression, induction",[3],2.96 fold
same,"T27E4.8 hsp-16.1 expression, induction",[3],2.80 fold
same,"T27F6.8 expression, induction",[3],4.80 fold
same,"T28C12.4 expression, induction",[3],13.23 fold
same,"W02D9.10 expression, induction",[3],2.74 fold
same,"Y22D7AL.5 hsp-60 expression, induction",[3],2.19 fold
same,"Y38E10A.15 nspe-7 expression, induction",[3],1.84 fold
same,"Y46H3A.2 hsp-16.41 expression, induction",[3],2.63 fold
same,"Y46H3A.3 hsp-16.2 expression, induction",[3],2.71 fold
same,"Y56A3A.33 expression, induction",[3],3.70 fold
same,"Y58A7A.5 expression, induction",[3],1.48 fold
same,"ZC376.7 atfs-1 expression, induction",[3],3.27 fold
same,"ZC443.6 ugt-16 expression, induction",[3],52.72 fold
same,"ZK697.6 gst-21 expression, induction",[3],454.34 fold
